Earlier results, collected in patent US20080063689A1, “Dietary supplements containing anthocyanins and methods for using same to enhance creatine absorption and vasodilation” (priority 2006, published 2008).

Tested on: pancreatic beta cells
Settings: glucose concentrations within physiological norms

Row | Substance | ability to stimulate insulin secretion
1 | cyanidin-3-glycoside | highest abilities to stimulate insulin secretion
2 | delphinium 3-glycoside | highest abilities to stimulate insulin secretion
